For this experiment, the target named is T1, human TRPV1 (Homo sapiens, UniProt Q8NER1).
T1 construct: expressed in transfected cells; host or cells: CHO-K1
T1 sequence (Q8NER1 whole entry): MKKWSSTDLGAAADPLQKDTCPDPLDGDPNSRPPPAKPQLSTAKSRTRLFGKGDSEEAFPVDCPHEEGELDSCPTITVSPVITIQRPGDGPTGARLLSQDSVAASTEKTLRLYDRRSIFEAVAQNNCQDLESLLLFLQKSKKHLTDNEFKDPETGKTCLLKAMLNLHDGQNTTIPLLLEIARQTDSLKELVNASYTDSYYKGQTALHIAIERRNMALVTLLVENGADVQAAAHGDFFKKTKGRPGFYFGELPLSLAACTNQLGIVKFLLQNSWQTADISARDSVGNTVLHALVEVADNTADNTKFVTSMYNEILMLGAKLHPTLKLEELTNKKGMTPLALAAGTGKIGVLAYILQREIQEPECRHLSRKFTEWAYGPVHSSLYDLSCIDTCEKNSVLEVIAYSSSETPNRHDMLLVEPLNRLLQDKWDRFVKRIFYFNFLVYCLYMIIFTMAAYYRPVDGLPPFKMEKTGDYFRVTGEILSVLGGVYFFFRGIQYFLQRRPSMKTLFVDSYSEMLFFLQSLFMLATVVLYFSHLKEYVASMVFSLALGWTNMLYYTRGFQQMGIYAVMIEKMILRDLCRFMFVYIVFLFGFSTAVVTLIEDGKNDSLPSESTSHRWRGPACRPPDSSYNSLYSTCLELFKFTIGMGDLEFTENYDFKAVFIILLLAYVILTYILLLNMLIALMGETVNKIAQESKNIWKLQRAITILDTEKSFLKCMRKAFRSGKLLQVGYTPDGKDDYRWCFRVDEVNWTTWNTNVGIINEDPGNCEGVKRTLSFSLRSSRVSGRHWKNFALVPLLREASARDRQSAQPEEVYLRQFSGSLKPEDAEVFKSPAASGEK
The experiment can be described thus: Measurement of capsaicin-induced Ca influx in human TRPV1 transformed CHO cell line using FDSS-6000. Format: cell-based. As to conditions: concentration at which the capsaicin concentration-reaction curve is shifted two times to the right, human TRPV1 transformed CHO cells.
On to `Cc1nc2cc(NC(=O)/C=C3\CCCOc4cc(C(F)(F)F)ccc43)ccc2s1` [Example 19, (E)-2-(8-trifluoromethyl-3,4-dihydrobenzo[b]oxepin-5(2H)-ylidene)-N-(2-methyl-1,3-benzothiazolo-5-yl)acetamide], for which the “A2 VALUE” is given as “A (compounds of the present invention having an A2 value of less than 100 nM are represented by A)”.

Consider `CC(C)CCC(=O)N1CC/C(=C\C(=O)Nc2ccc3cccnc3c2)c2ccc(C(F)(F)F)cc21` [Example 78, (E)-2-(1-(4-methylpentanoyl)-7-trifluoromethyl-2,3-dihydroquinolin-4(1H)-ylidene)-N-(quinolin-7-yl)acetamide], for which the “A2 VALUE” was “A (compounds of the present invention having an A2 value of less than 100 nM are represented by A)”.

Take `O=C(/C=C1\CCCOc2cc(C(F)(F)F)ccc21)Nc1ccc2cc[nH]c2c1` [Example 137, (E)-2-(8-trifluoromethyl-3,4-dihydrobenzo[b]oxepin-5(2H)-ylidene)-N-(indol-6-yl)acetamide]: the “A2 VALUE” is “A (compounds of the present invention having an A2 value of less than 100 nM are represented by A)”.

Regarding `CCCCC(=O)N1CC/C(=C\C(=O)Nc2cccc3c2CC(O)CC3)c2ccc(C(F)(F)F)cc21` (stereo not shown) [Example 83, (E)-2-(1-pentanoyl-7-trifluoromethyl-2,3-dihydroquinolin-4(1H)-ylidene)-N-(7-hydroxy-5,6,7,8-tetrahydronaphthalen-1-yl)acetamide], the “A2 VALUE” was “A (compounds of the present invention having an A2 value of less than 100 nM are represented by A)”.

For `O=C(/C=C1\CCCOc2cc(C(F)(F)F)ccc21)NCc1ccc(-n2cccn2)cc1` [Example 38, (E)-N-(4-(1H-pyrazolo-1-yl)phenylmethyl)-2-(8-trifluoromethyl-3,4-dihydrobenzo[b]oxepin-5(2H)-ylidene)acetamide], the “A2 VALUE” is recorded as “B (compounds having an A2 value of 100 nM or more are represented by B)”.

In the case of `O=C(/C=C1\CCCOc2cc(C(F)(F)F)ccc21)Nc1ccc2c(c1)OC(F)(F)O2` [Example 143, (E)-2-(8-trifluoromethyl-3,4-dihydrobenzo[b]oxepin-5(2H)-ylidene)-N-(2,2-difluoro-1,3-benzodioxol-5-yl)acetamide], the “A2 VALUE” is “B (compounds having an A2 value of 100 nM or more are represented by B)”.

Consider `O=C(/C=C1\CCCOc2cc(C(F)(F)F)ccc21)NCc1nnc2ccccn12` [Example 40], for which the “A2 VALUE” is on record as “B (compounds having an A2 value of 100 nM or more are represented by B)”.

With `O=C(/C=C1\CCCOc2cc(C(F)(F)F)ccc21)Nc1ccc2ccc(O)cc2c1` [Example 128, (E)-2-(8-trifluoromethyl-3,4-dihydrobenzo[b]oxepin-5(2H)-ylidene)-N-(7-hydroxynaphthalen-2-yl)acetamide], the “A2 VALUE” is on record as “A (compounds of the present invention having an A2 value of less than 100 nM are represented by A)”.

`CC(CNC(=O)/C=C1\CCCOc2cc(C(F)(F)F)ccc21)c1cccc2c1CC(O)CC2` (stereo not shown) [Example 227, (E)-2-(8-trifluoromethyl-3,4-dihydrobenzo[b]oxepin-5(2H)-ylidene)-N-(2-(7-hydroxy-5,6,7,8-tetrahydronaphthalen-1-yl)propyl)acetamide]: the “A2 VALUE” is “A (compounds of the present invention having an A2 value of less than 100 nM are represented by A)”.

As for `O=C(/C=C1\CCOc2nc(C(F)(F)F)ccc21)Nc1cccc2c1CC(O)CC2` (stereo not shown) [Example 238, (E)-2-(7-trifluoromethyl-3,4-dihydro-2H-pyrano[2,3-b]pyridin-4-ylidene)-N-(7-hydroxy-5,6,7,8-tetrahydronaphthalen-1-yl)acetamide], the “A2 VALUE” is “A (compounds of the present invention having an A2 value of less than 100 nM are represented by A)”.

Turning to `CN1CCC/C(=C\C(=O)Nc2cccc3ccc(O)cc23)c2ccc(C(F)(F)F)cc21` [Example 198, (E)-2-(1-methyl-8-trifluoromethyl-1,2,3,4-tetrahydro-5H-benzo[b]azepin-5-ylidene)-N-(7-hydroxynaphthalen-1-yl)acetamide], the “A2 VALUE” is “A (compounds of the present invention having an A2 value of less than 100 nM are represented by A)”.

For the compound `O=C(/C=C1\CCCN(CC2CCCC2)c2cc(C(F)(F)F)ccc21)Nc1ccc2cccnc2c1` [Example 197, (E)-2-(1-cyclopentylmethyl-8-trifluoromethyl-1,2,3,4-tetrahydro-5H-benzo[b]azepin-5-ylidene)-N-(quinolin-7-yl)acetamide], the “A2 VALUE” is on record as “A (compounds of the present invention having an A2 value of less than 100 nM are represented by A)”.

For the compound `O=C(/C=C1\CCCOc2cc(C(F)(F)F)ccc21)Nc1ccc2c(c1)OCCCO2` [Example 142, (E)-2-(8-trifluoromethyl-3,4-dihydrobenzo[b]oxepin-5(2H)-ylidene)-N-(3,4-dihydro-2H-benzo[b]dioxepin-7-yl)acetamide], the “A2 VALUE” was “A (compounds of the present invention having an A2 value of less than 100 nM are represented by A)”.

On to `CC(=O)N1CC/C(=C\C(=O)Nc2ccc3cccnc3c2)c2ccc(C(F)(F)F)cc21` [Example 48, (E)-2-(1-acetyl-7-trifluoromethyl-2,3-dihydroquinolin-4(1H)-ylidene)-N-(quinolin-7-yl)acetamide], for which the “A2 VALUE” is listed as “A (compounds of the present invention having an A2 value of less than 100 nM are represented by A)”.

For `O=C(/C=C1\CCCOc2cc(C(F)(F)F)ccc21)Nc1cccc2c1CC(O)CN2` (stereo not shown) [Example 219, (E)-2-(8-trifluoromethyl-3,4-dihydrobenzo[b]oxepin-5(2H)-ylidene)-N-(3-hydroxy-1,2,3,4-tetrahydroquinolin-5-yl)acetamide], the “A2 VALUE” is listed as “A (compounds of the present invention having an A2 value of less than 100 nM are represented by A)”.

With `O=C(/C=C1\CCN(c2cccnc2)c2cc(C(F)(F)F)ccc21)Nc1ccc2cccnc2c1` [Example 58, (E)-2-(7-trifluoromethyl-2,3-dihydro-1-(pyridin-3-yl)quinolin-4(1H)-ylidene)-N-(quinolin-7-yl)acetamide], the “A2 VALUE” is “A (compounds of the present invention having an A2 value of less than 100 nM are represented by A)”.

For the compound `O=C(/C=C1\CCN(C(=O)C2CCCC2)c2cc(C(F)(F)F)ccc21)Nc1cccc2c1CC(O)CC2` (stereo not shown) [Example 82, (E)-2-(1-cyclopentanecarbonyl-7-trifluoromethyl-2,3-dihydroquinolin-4(1H)-ylidene)-N-(7-hydroxy-5,6,7,8-tetrahydronaphthalen-1-yl)acetamide], the “A2 VALUE” is on record as “A (compounds of the present invention having an A2 value of less than 100 nM are represented by A)”.

With `O=C(/C=C1\CCCOc2cc(C(F)(F)F)ccc21)NCC1COc2ccccc2O1` (stereo not shown) [Example 34, (E)-2-(8-trifluoromethyl-3,4-dihydrobenzo[b]oxepin-5(2H)-ylidene)-N-((2,3-dihydrobenzo[b][1,4]dioxin-2-yl)methyl)acetamide], the “A2 VALUE” is listed as “B (compounds having an A2 value of 100 nM or more are represented by B)”.

In the case of `O=C(/C=C1\CCCOc2cc(C(F)(F)F)ccc21)Nc1cccc2c1CC1OC1C2` (stereo not shown) [Example 169, (E)-2-(8-trifluoromethyl-3,4-dihydrobenzo[b]oxepin-5(2H)-ylidene)-N-(1a,2,7,7a-tetrahydronaphtho[b]oxiren-3-yl)acetamide], the “A2 VALUE” is “A (compounds of the present invention having an A2 value of less than 100 nM are represented by A)”.

For the origin of these results see US7910751B2, “Heterocyclidene acetamide derivative” (Mochida Pharmaceutical Co., Ltd., priority 2005, dated 2011).
